According to PubChem BioAssay (NCI):
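Compound exposure: 48 hours, 5 concentrations, 96-well plates. GI50: concentration for 50% inhibition of growth. TGI: concentration producing complete growth inhibition.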

How the values were obtained:
Assay in all cases: inhibition of tumour cell growth, NCI panel, 48 h
[1] = tested on: SN12C renal
[2] = tested on: MCF7 breast
[3] = tested on: KM12 colon
[4] = tested on: M14 melanoma
[5] = tested on: SK-MEL-5 melanoma
[6] = tested on: HCT-116 colon
[7] = tested on: DU-145 prostate
[8] = tested on: K-562 leukemia
[9] = tested on: OVCAR-3 ovarian
[10] = tested on: CAKI-1 renal
[11] = tested on: OVCAR-4 ovarian
[12] = tested on: MDA-MB-435
[13] = tested on: IGROV1 ovarian
[14] = tested on: EKVX NSCLC
[15] = tested on: NCI-H226 lung
[16] = tested on: OVCAR-5 ovarian
[17] = tested on: UACC-257 melanoma
[18] = tested on: SF-268 CNS
[19] = tested on: ACHN renal
[20] = tested on: NCI-H460 lung
[21] = tested on: SR leukemia
[22] = tested on: HOP-92 NSCLC
[23] = tested on: HL-60(TB) leukemia
[24] = tested on: SF-539 CNS
[25] = tested on: T-47D breast
[26] = tested on: SK-OV-3 ovarian
[27] = tested on: BT-549 breast
[28] = tested on: HCT-15 colon
[29] = tested on: U251 CNS
[30] = tested on: SK-MEL-2 melanoma
[31] = tested on: PC-3 prostate
[32] = tested on: MDA-MB-231 breast
[33] = tested on: MOLT-4 leukemia
[34] = tested on: OVCAR-8 ovarian
[35] = tested on: SF-295 CNS
[36] = tested on: MDA-MB-468 breast
[37] = tested on: HS 578T breast
[38] = tested on: LOX IMVI melanoma
[39] = tested on: NCI/ADR-RES ovarian
[40] = tested on: SK-MEL-28 melanoma
[41] = tested on: CCRF-CEM leukemia
[42] = tested on: SW-620 colon
[43] = tested on: A498 renal
[44] = tested on: SNB-75 CNS
[45] = tested on: HT29 colon
[46] = tested on: RPMI-8226 leukemia
[47] = tested on: UO-31 renal
[48] = tested on: NCI-H522 lung
[49] = tested on: TK-10 renal
[50] = tested on: 786-0 renal
[51] = tested on: MALME-3M melanoma
[52] = tested on: NCI-H23 lung
[53] = tested on: RXF 393 renal
[54] = tested on: UACC-62 melanoma
[55] = tested on: HOP-62 NSCLC
[56] = tested on: A549 NSCLC
[57] = tested on: SNB-19 CNS
[58] = tested on: HCC-2998 colon
[59] = tested on: COLO 205 colon

`O=C(c1ccc(Cl)cc1)C(c1c[nH]c2ccccc12)c1c[nH]c2ccccc12` gave a GI50 [1] of 3.13 µM, a TGI [1] of 12 µM and a GI50 [2] of 2.38 µM. The TGI [2] was 8.25 µM, the GI50 [3] was 8.98 µM and the TGI [3] was 22 µM. The GI50 [4] was 2.9 µM, the TGI [4] was 12.7 µM and the GI50 [5] was 11.3 µM. For the same molecule, the TGI [5] was 23.7 µM, the GI50 [6] was 1.65 µM and the TGI [6] was 3.16 µM. The GI50 [7] was 4.36 µM, the TGI [7] was 16.4 µM and the GI50 [8] was 2.99 µM. It also gave a TGI [8] of 9.64 µM, a GI50 [9] of 2.56 µM and a TGI [9] of 7.18 µM. For the same molecule, the GI50 [10] was 2.94 µM, the TGI [10] was 14.3 µM and the GI50 [11] was 5.23 µM. The TGI [11] was 18.2 µM, the GI50 [12] was 3.85 µM and the TGI [12] was 14.3 µM. The GI50 [13] was 4.05 µM, the TGI [13] was 16.8 µM and the GI50 [14] was 6.46 µM. The TGI [14] was 20.8 µM, the GI50 [15] was 8.88 µM and the TGI [15] was 24.7 µM. The GI50 [16] was 3.79 µM, the TGI [16] was 15.5 µM and the GI50 [17] was 4.93 µM. The TGI [17] was 18.1 µM, the GI50 [18] was 4.85 µM and the TGI [18] was 19.8 µM. For the same molecule, the GI50 [19] was 1.91 µM, the TGI [19] was 4.17 µM and the GI50 [20] was 3.65 µM. For the same molecule, the TGI [20] was 14.9 µM, the GI50 [21] was 2.73 µM and the TGI [21] was 10.9 µM. For the same molecule, the GI50 [22] was 3.32 µM, the TGI [22] was 16.8 µM and the GI50 [23] was 2.6 µM. It also gave a TGI [23] of 8.35 µM, a GI50 [24] of 5.53 µM and a TGI [24] of 18.8 µM. It also gave a GI50 [25] of 3.01 µM, a TGI [25] of 16 µM and a GI50 [26] of 14.1 µM. The TGI [26] was 27.7 µM, the GI50 [27] was 4.09 µM and the TGI [27] was 14.4 µM. It also gave a GI50 [28] of 2.21 µM, a TGI [28] of 6.16 µM and a GI50 [29] of 10.8 µM. It also gave a TGI [29] of 24.1 µM, a GI50 [30] of 12.2 µM and a TGI [30] of 26.1 µM. For the same molecule, the GI50 [31] was 3.08 µM, the TGI [31] was 12.7 µM and the GI50 [32] was 4.87 µM. It also gave a TGI [32] of 20.2 µM, a GI50 [33] of 2.69 µM and a TGI [33] of 12.2 µM. It also gave a GI50 [34] of 11.2 µM, a TGI [34] of 24.2 µM and a GI50 [35] of 12.1 µM. The TGI [35] was 24.9 µM, the GI50 [36] was 2.69 µM and the TGI [36] was 7.65 µM. For the same molecule, the GI50 [37] was 13.4 µM, the TGI [37] was 45.8 µM and the GI50 [38] was 1.68 µM. The TGI [38] was 3.26 µM, the GI50 [39] was 3.52 µM and the TGI [39] was 15.8 µM. For the same molecule, the GI50 [40] was 2.36 µM, the TGI [40] was 6.42 µM and the GI50 [41] was 3.21 µM. For the same molecule, the TGI [41] was over 100 µM, the GI50 [42] was 2.99 µM and the TGI [42] was 9.91 µM. It also gave a GI50 [43] of 18 µM, a TGI [43] of 34.1 µM and a GI50 [44] of 2.43 µM. For the same molecule, the TGI [44] was 13.3 µM, the GI50 [45] was 2.79 µM and the TGI [45] was 6.97 µM. For the same molecule, the GI50 [46] was 3.01 µM, the TGI [46] was 15.4 µM and the GI50 [47] was 3.41 µM. For the same molecule, the TGI [47] was 17 µM, the GI50 [48] was 1.74 µM and the TGI [48] was 3.52 µM. For the same molecule, the GI50 [49] was 18.9 µM, the TGI [49] was 33.2 µM and the GI50 [50] was 2.12 µM. The TGI [50] was 4.22 µM, the GI50 [51] was 3.41 µM and the TGI [51] was 15.9 µM. The GI50 [52] was 4.05 µM, the TGI [52] was 17.4 µM and the GI50 [53] was 2.93 µM. For the same molecule, the TGI [53] was 9.21 µM, the GI50 [54] was 4.49 µM and the TGI [54] was 17.6 µM. It also gave a GI50 [55] of 13 µM, a TGI [55] of 27.3 µM and a GI50 [56] of 13.5 µM. It also gave a TGI [56] of 31.6 µM, a GI50 [57] of 15.4 µM and a TGI [57] of 29.6 µM. The GI50 [58] was 2.33 µM, the TGI [58] was 5.8 µM and the GI50 [59] was 16.3 µM. It also gave a TGI [59] of 31.2 µM.

With `N#CC1=C(c2cccs2)Nc2c(c(-c3ccccc3)nn2-c2ccccc2)C12C(=O)Nc1ccc(Cl)cc12` (centres undefined) the GI50 [1] was 4.46 µM, the TGI [1] was 16.8 µM and the GI50 [2] was 4.95 µM. The TGI [2] was 19.4 µM, the GI50 [3] was 3.66 µM and the TGI [3] was 13.6 µM. It also gave a GI50 [4] of 4.94 µM, a TGI [4] of 18.4 µM and a GI50 [5] of 10.8 µM. For the same molecule, the TGI [5] was 23.1 µM, the GI50 [6] was 3.95 µM and the TGI [6] was 16.3 µM. The GI50 [7] was 13.9 µM, the TGI [7] was 30.3 µM and the GI50 [8] was 4.46 µM. The TGI [8] was 34.1 µM, the GI50 [9] was 6.88 µM and the TGI [9] was 19.7 µM. For the same molecule, the GI50 [10] was 5.26 µM, the TGI [10] was 18.6 µM and the GI50 [11] was 4.77 µM. For the same molecule, the TGI [11] was 21.1 µM, the GI50 [12] was 11.1 µM and the TGI [12] was 23.9 µM. It also gave a GI50 [13] of 4.93 µM, a TGI [13] of 17.7 µM and a GI50 [14] of 4.33 µM. It also gave a TGI [14] of 18 µM, a GI50 [15] of 11.6 µM and a TGI [15] of 28.2 µM. For the same molecule, the GI50 [16] was 7.31 µM, the TGI [16] was 20.9 µM and the GI50 [17] was 12.9 µM. The TGI [17] was 25.8 µM, the GI50 [18] was 3.52 µM and the TGI [18] was 19 µM. For the same molecule, the GI50 [19] was 4.05 µM, the TGI [19] was 14.8 µM and the GI50 [20] was 4.07 µM. It also gave a TGI [20] of 14.1 µM, a GI50 [21] of 4.93 µM and a TGI [21] of 36.3 µM. The GI50 [22] was 2.47 µM, the TGI [22] was 7.94 µM and the GI50 [23] was 3.51 µM. For the same molecule, the TGI [23] was 11.7 µM, the GI50 [24] was 4.77 µM and the TGI [24] was 17 µM. The GI50 [25] was 5.84 µM, the TGI [25] was 33.8 µM and the GI50 [26] was 10.6 µM. For the same molecule, the TGI [26] was 23.6 µM, the GI50 [27] was 3.02 µM and the TGI [27] was 13.1 µM. The GI50 [28] was 3.74 µM, the TGI [28] was 14.1 µM and the GI50 [29] was 3.88 µM. It also gave a TGI [29] of 14.4 µM, a GI50 [30] of 3.97 µM and a TGI [30] of 14.6 µM. It also gave a GI50 [31] of 3.18 µM, a TGI [31] of 15.2 µM and a GI50 [32] of 4.52 µM. The TGI [32] was 16.9 µM, the GI50 [33] was 4.95 µM and the TGI [33] was 23.4 µM. It also gave a GI50 [34] of 4.92 µM, a TGI [34] of 17.9 µM and a GI50 [35] of 3.74 µM. The TGI [35] was 15.9 µM, the GI50 [36] was 4.45 µM and the TGI [36] was 16.6 µM. The GI50 [37] was 3.22 µM, the TGI [37] was 18.6 µM and the GI50 [38] was 6.46 µM. The TGI [38] was 20.4 µM, the GI50 [40] was 11.1 µM and the TGI [40] was 23.2 µM. The GI50 [41] was 3.35 µM, the TGI [41] was 20.7 µM and the GI50 [42] was 4.56 µM. For the same molecule, the TGI [42] was 16.6 µM, the GI50 [43] was 16.8 µM and the TGI [43] was 31.2 µM. The GI50 [44] was 2.6 µM, the TGI [44] was 13 µM and the GI50 [45] was 4.82 µM. The TGI [45] was 17.1 µM, the GI50 [46] was 4.3 µM and the TGI [46] was 27.5 µM. The GI50 [47] was 2.54 µM, the TGI [47] was 12.2 µM and the GI50 [48] was 2.6 µM. It also gave a TGI [48] of 9.87 µM, a GI50 [49] of 5.81 µM and a TGI [49] of 20.5 µM. The GI50 [50] was 6.43 µM, the TGI [50] was 20.6 µM and the GI50 [51] was 14.3 µM. The TGI [51] was 27.4 µM, the GI50 [52] was 5.57 µM and the TGI [52] was 18.2 µM. It also gave a GI50 [53] of 3.14 µM, a TGI [53] of 13.3 µM and a GI50 [54] of 4.13 µM. For the same molecule, the TGI [54] was 16.9 µM, the GI50 [55] was 7.02 µM and the TGI [55] was 21.4 µM. The GI50 [56] was 4.12 µM, the TGI [56] was 15.9 µM and the GI50 [57] was 3.12 µM. It also gave a TGI [57] of 14.2 µM, a GI50 [58] of 7.13 µM and a TGI [58] of 19.8 µM. The GI50 [59] was 14.3 µM and the TGI [59] was 29.5 µM.
